Patent US12624034B2, “Non-covalent modifiers of AKT1 and uses thereof” (Terremoto Biosciences, Inc., priority 2023, dated 2026)
Read-outs that look alike come from different tables or passages of the source.

Key:
[1] = test system: LAPC4 prostate cancer cells, which express the AKT1 E17K allele; experiment: Antiproliferative effects in LAPC4 cells (CellTiter Glo, 72 h); format: cell-based; conditions: read-out: LAPC4 proliferation IC50
How it was run: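 LAPC4 cells were cultured in IMDM with 12% FBS and 1% P/S, seeded at 1,000 cells/well and exposed to compound dilutions in DMSO. After 72 h, intracellular ATP was measured by CellTiter Glo luminescence, and IC50 values came from a log(inhibitor) vs. response Hill fit.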

AKT1 E17K = molecular target: T1, AKT1 E17K (Homo sapiens, UniProt P31749, E17K); experiment: Live cell AKT1 E17K target engagement by NanoBRET competitive probe displacement in HEK293 cells; format: binding; conditions: 2 h at 37° C.
T1 construct: expressed in transfected cells; host or cells: HEK293
T1 sequence (P31749 whole entry E17K): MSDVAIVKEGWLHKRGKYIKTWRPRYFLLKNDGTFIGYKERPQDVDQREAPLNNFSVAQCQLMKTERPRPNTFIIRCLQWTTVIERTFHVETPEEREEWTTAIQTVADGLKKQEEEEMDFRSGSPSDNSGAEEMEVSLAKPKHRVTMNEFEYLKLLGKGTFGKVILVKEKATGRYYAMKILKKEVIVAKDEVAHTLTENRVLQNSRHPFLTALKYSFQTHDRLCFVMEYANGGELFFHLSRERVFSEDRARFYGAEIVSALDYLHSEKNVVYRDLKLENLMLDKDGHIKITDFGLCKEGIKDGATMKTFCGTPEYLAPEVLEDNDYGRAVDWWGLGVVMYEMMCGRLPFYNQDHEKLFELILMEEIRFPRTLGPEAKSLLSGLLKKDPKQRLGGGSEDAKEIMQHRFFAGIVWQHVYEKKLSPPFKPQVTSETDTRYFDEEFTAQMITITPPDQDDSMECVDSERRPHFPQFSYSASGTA
How it was run: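 HEK293 cells transiently expressing kinase–NanoLuciferase fusions (overnight transfection) were exposed to serially diluted compound plus a fluorescent ATP-competitive tracer at ~EC50 for 2 h at 37° C. After substrate and extracellular luciferase inhibitor, emission at 460 and 600 nm gave the BRET ratio (E600/E460); IC50 from Hill fit.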

AKT1 WT = molecular target: T2, AKT1 WT (Homo sapiens, UniProt P31749); experiment: Live cell AKT1 WT target engagement by NanoBRET competitive probe displacement in HEK293 cells; format: binding; conditions: 2 h at 37° C., read-out: AKT1 WT IC50
T2 construct: expressed in transfected cells; host or cells: HEK293
T2 sequence (P31749 whole entry): as the sequence (P31749 whole entry E17K) above, with K17E counted along it

AKT2 = molecular target: T3, AKT2 (Homo sapiens, UniProt P31751); experiment: Live cell AKT2 target engagement by NanoBRET competitive probe displacement in HEK293 cells; format: binding; conditions: 2 h at 37° C., read-out: AKT2 IC50
T3 construct: expressed in transfected cells; host or cells: HEK293
T3 sequence (P31751 whole entry): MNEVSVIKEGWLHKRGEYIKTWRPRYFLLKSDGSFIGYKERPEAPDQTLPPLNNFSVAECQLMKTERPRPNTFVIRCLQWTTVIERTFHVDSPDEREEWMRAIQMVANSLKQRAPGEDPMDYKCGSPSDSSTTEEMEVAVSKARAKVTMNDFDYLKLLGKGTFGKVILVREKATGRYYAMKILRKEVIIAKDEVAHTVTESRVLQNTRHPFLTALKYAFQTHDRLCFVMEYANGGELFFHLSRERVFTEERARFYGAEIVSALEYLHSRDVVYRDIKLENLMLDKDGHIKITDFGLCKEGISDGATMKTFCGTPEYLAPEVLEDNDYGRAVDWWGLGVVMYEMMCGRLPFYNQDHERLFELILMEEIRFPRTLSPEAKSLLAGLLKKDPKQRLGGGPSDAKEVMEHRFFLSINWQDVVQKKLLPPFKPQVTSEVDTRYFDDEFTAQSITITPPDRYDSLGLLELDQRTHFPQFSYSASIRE

[2] = NanoBRET live cell target engagement, HEK293 cells
[3] = NanoBRET competitive probe displacement, live HEK293 cells

In the case of CN1CCC(N[C@H]2CCc3cc(-n4c(-c5cccnc5N)nc5ccc(-n6cccn6)nc54)ccc32)CC1 [Compound 274], the IC50 ([1]; Homo sapiens, LAPC4, 72 h) is reported as greater than 10000 nM, the IC50 (AKT1 E17K; [2]) is reported as greater than 1000 nM and the IC50 (AKT1 WT; [2]) is reported as 593 nM. It also gave an IC50 (AKT2; [2]) of 5000 nM.

Nc1ncccc1-c1nc2ccc(-n3cccn3)nc2n1-c1ccc2c(c1)CC[C@@H]2NC1CCN(C(=O)C2CC2)CC1 [Compound 279] gave an IC50 ([1]; Homo sapiens, LAPC4, 72 h) of 9360 nM, an IC50 (AKT1 E17K; [2]) greater than 1000 nM and an IC50 (AKT1 WT; [2]) of 45.4 nM. For the same compound, the IC50 (AKT2; [2]) was 2400 nM.

COc1ccc(C(=O)N[C@H]2CCc3cc(-n4c(-c5cccnc5N)nc5ccc(-n6cccn6)nc54)ccc32)cn1 [Compound 38, N-[(1S)-5-[2-(2-aminopyridin-3-yl)-5-(pyrazol-1-yl)imidazo[4,5-b]pyridin-3-yl]-2,3-dihydro-1H-inden-1-yl]-6-methoxypyridine-3-carboxamide] was tested, and the IC50 ([1]; Homo sapiens, LAPC4, 72 h) was 585 nM, the IC50 (AKT1 E17K; [2]) was 25.6 nM and the IC50 (AKT1 WT; [2]) was 4.07 nM. The IC50 (AKT2; [2]) was 19 nM.

Work on Nc1ncccc1-c1nc2ccc(-n3cccn3)nc2n1-c1ccc2c(c1)CC[C@@H]2NC1CN(C(=O)C2CC2)C1 [Compound 441] yielded an IC50 ([1]; Homo sapiens, LAPC4, 72 h) of 3710 nM, an IC50 (AKT1 E17K; [3]) greater than 1000 nM and an IC50 (AKT1 WT; [3]) of 21.7 nM. It also gave an IC50 (AKT2; [3]) of 1340 nM.

Nc1ncccc1-c1nc2ccc(-n3cccn3)nc2n1-c1ccc2c(c1)CC[C@@H]2NC(=O)c1ccc(Cl)nc1 [Compound 45, (S)—N-(5-(2-(2-aminopyridin-3-yl)-5-(1H-pyrazol-1-yl)-3H-imidazo[4,5-b]pyridin-3-yl)-2,3-dihydro-1H-inden-1-yl)-6-chloronicotinamide] showed an IC50 ([1]; Homo sapiens, LAPC4, 72 h) of 1340 nM, an IC50 (AKT1 E17K; [2]) of 170 nM and an IC50 (AKT1 WT; [2]) of 17.4 nM. It also gave an IC50 (AKT2; [2]) of 139 nM.

With Nc1ncccc1-c1nc2ccc(-n3cccn3)nc2n1-c1ccc2c(c1)CC[C@@H]2NC(=O)c1cncnc1 [Compound 40, N-[(1S)-5-[2-(2-aminopyridin-3-yl)-5-(pyrazol-1-yl)imidazo[4,5-b]pyridin-3-yl]-2,3-dihydro-1H-inden-1-yl]pyrimidine-5-carboxamide] the IC50 ([1]; Homo sapiens, LAPC4, 72 h) was 1770 nM, the IC50 (AKT1 E17K; [2]) was 36 nM and the IC50 (AKT1 WT; [2]) was 9.21 nM. It also gave an IC50 (AKT2; [2]) of 179 nM.

Nc1ncccc1-c1nc2ccc(-n3nccn3)nc2n1-c1ccc2c(c1)CC[C@@H]2NC(=O)c1cnc(C(F)F)cn1 [Compound 288] showed an IC50 ([1]; Homo sapiens, LAPC4, 72 h) of 3680 nM, an IC50 (AKT1 E17K; [2]) greater than 1000 nM and an IC50 (AKT1 WT; [2]) of 112 nM. The IC50 (AKT2; [2]) was greater than 10000 nM.

In the case of Nc1ncccc1-c1nc2ccc(-n3nccn3)nc2n1-c1ccc2c(c1)CC[C@@H]2NC(=O)c1cncnc1 [Compound 59, (S)—N-(5-(2-(2-aminopyridin-3-yl)-5-(2H-1,2,3-triazol-2-yl)-3H-imidazo[4,5-b]pyridin-3-yl)-2,3-dihydro-1H-inden-1-yl)pyrimidine-5-carboxamide], the IC50 ([1]; Homo sapiens, LAPC4, 72 h) is reported as 3620 nM, the IC50 (AKT1 E17K; [2]) is reported as 261 nM and the IC50 (AKT1 WT; [2]) is reported as 48.8 nM. The IC50 (AKT2; [2]) was 3430 nM.

Nc1ncccc1-c1nc2ccc(-n3nccn3)nc2n1-c1ccc2c(c1)CC(F)[C@@H]2NC(=O)c1ccc(C(F)F)nc1 (stereo partly drawn) [Compound 350] showed an IC50 [1] of 885 nM, an IC50 (AKT1 E17K; [2]) of 94.4 nM and an IC50 (AKT1 WT; [2]) of 11.5 nM. It also gave an IC50 (AKT2; [2]) of 423 nM.

For COc1cc(C(=O)N[C@H]2CCc3cc(-n4c(-c5cccnc5N)nc5ccc(-n6cccn6)nc54)ccc32)cc(OC)n1 [Compound 283], the IC50 ([1]; Homo sapiens, LAPC4, 72 h) was 264 nM, the IC50 (AKT1 E17K; [2]) was 10.6 nM and the IC50 (AKT1 WT; [2]) was 2.75 nM. It also gave an IC50 (AKT2; [2]) of 2.91 nM.

Work on Nc1ncccc1-c1nc2ccc(-n3nccn3)nc2n1-c1ccc2c(c1)CC[C@@H]2NC(=O)c1ccc(C(F)F)nc1 [Compound 65, (S)—N-(5-(2-(2-aminopyridin-3-yl)-5-(2H-1,2,3-triazol-2-yl)-3H-imidazo[4,5-b]pyridin-3-yl)-2,3-dihydro-1H-inden-1-yl)-6-(difluoromethyl)nicotinamide] yielded an IC50 ([1]; Homo sapiens, LAPC4, 72 h) of 925 nM, an IC50 (AKT1 E17K; [2]) of 292 nM and an IC50 (AKT1 WT; [2]) of 19.4 nM. For the same compound, the IC50 (AKT2; [2]) was 1070 nM.

With COc1nccc(C(=O)N[C@H]2CCc3cc(-n4c(-c5cccnc5N)nc5ccc(-n6cccn6)nc54)ccc32)c1OC [Compound 355] the IC50 ([1]; Homo sapiens, LAPC4, 72 h) was 2770 nM, the IC50 (AKT1 E17K; [2]) was 734 nM and the IC50 (AKT1 WT; [2]) was 16.8 nM. For the same compound, the IC50 (AKT2; [2]) was 74.4 nM.
